According to ChEMBL document CHEMBL3639359, “Compounds as cannabinoid receptor ligands” (2014):

Experiments:
[1] = target: T1, Cannabinoid receptor 2 (Rattus norvegicus, UniProt Q9QZN9); experiment: Radioligand Binding Assay: HEK293 cells stably expressing rat CB2 receptors were grown until a confluent monolayer was formed. Briefly, the cells were harvested and homogenized in TE buffer (50 mM Tris-HCl, 1 mM MgCl2, and 1 mM EDTA) using a polytron for 2x 10 second bursts in the presence of protease inhibitors, followed by centrifugation at 45,000x g for 20 minutes. The final membrane pellet was re-homogenized in storage buffer (50 mM Tris-HCl, 1 mM MgCl2, and 1 mM EDTA and 10% sucrose) and frozen at -78 C. until used. Saturation binding reactions were initiated by the addition of membrane preparation (protein concentration of 20 ug/well for rat CB2) into wells of a deep well plate containing [3H]CP 55,940 (120 Ci/mmol, a nonselective CB agonist commercially available from Tocris) in assay buffer (50 mM Tris, 2.5 mM EDTA, 5 mM MgCl2, and 0.5 mg/mL fatty acid free BSA, pH 7.4). After 45 min incubation at 30u C., binding reaction was terminated by the addition of 300 ul/well of cold assay buffer.; type: cell membranes
T1 sequence (Q9QZN9 whole entry): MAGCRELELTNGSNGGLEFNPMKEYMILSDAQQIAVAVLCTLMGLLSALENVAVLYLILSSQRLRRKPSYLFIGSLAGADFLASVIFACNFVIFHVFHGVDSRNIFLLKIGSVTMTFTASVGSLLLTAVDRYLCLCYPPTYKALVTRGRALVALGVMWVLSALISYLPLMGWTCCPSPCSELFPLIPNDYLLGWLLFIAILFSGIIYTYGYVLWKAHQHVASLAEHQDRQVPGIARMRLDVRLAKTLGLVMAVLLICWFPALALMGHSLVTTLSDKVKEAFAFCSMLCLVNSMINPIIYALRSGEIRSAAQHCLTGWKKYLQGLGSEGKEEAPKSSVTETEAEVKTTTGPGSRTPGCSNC

[2] = target: Cannabinoid receptor 2 (Homo sapiens, UniProt P34972); experiment: Radioligand Binding Assay: HEK293 cells stably expressing human CB2 receptors were grown until a confluent monolayer was formed. Briefly, the cells were harvested and homogenized in TE buffer (50 mM Tris-HCl, 1 mM MgCl2, and 1 mM EDTA) using a polytron for 2x 10 second bursts in the presence of protease inhibitors, followed by centrifugation at 45,000xg for 20 minutes. The final membrane pellet was re-homogenized in storage buffer (50 mM Tris-HCl, 1 mM MgCl2, and 1 mM EDTA and 10% sucrose) and frozen at -78 C. until used. Saturation binding reactions were initiated by the addition of membrane preparation (protein concentration of 5 ug/well for human CB2) into wells of a deep well plate containing [3H]CP 55,940 (120 Ci/mmol, a nonselective CB agonist commercially available from Tocris) in assay buffer (50 mM Tris, 2.5 mM EDTA, 5 mM MgCl2, and 0.5 mg/mL fatty acid free BSA, pH 7.4). After 90 min incubation at 30 C., binding reaction was terminated by the addition of 300 uL/well of cold assay buffer.; type: cell membranes
Chain of Cannabinoid receptor 2 (Homo sapiens, UniProt P34972) (P34972 whole entry): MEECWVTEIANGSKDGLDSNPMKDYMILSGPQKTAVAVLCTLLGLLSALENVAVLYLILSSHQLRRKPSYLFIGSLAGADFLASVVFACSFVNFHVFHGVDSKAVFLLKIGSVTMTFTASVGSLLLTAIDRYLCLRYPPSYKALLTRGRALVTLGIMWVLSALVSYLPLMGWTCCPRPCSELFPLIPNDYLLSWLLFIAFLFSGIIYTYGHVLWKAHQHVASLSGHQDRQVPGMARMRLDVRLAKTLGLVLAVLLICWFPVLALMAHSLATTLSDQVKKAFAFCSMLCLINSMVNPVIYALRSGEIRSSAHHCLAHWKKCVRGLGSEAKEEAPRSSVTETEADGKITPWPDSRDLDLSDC

CCCCn1nc(C(C)(C)C)s/c1=N\C(=O)c1cc(C(F)(F)F)ccc1ON=C(C)C
Ki [1]: 5.2 nM
Ki [2]: 12 nM
